Reference: ChEMBL document CHEMBL4184147, “Polyphenolic Phytochemicals in Cancer Prevention and Therapy: Bioavailability versus Bioefficacy” (J Med Chem, 2017)

Tests used:
Lipid bilayer = assay: Induction of DOPC/n-decane bilayer property changes assessed as concentration required to double gramicidin-induced quencher influx rate by […]
[1] = Displacement of [3H]resveratrol from Sprague-Dawley rat brain plasma membranes after 1 hr by beta counting method; format: cell membranes

Row | Compound | Activity (Lipid bilayer) [µM] | Ki [1] [nM]
1 | COc1cc(CNC(=O)CCCC/C=C/C(C)C)ccc1O | 18 | –
2 | O=C(O[C@@H]1Cc2c(O)cc(O)cc2O[C@@H]1c1ccc(O)c(O)c1)c1cc(O)c(O)c(O)c1 [EPICATECHIN GALLATE] | – | 25 to 45
